From patent US20240368132A1, “ROCK2 INHIBITORS AND USES THEREOF” (President and Fellows of Harvard College, priority 2021, published 2024) come the findings set out here.

For one test, the target named is T1, ROCK2 (Homo sapiens, UniProt O75116).
T1 construct: purchased Reaction Biology
Nature of the test: ROCK2 kinase assay (Reaction Biology Hot Spot kinase assay). The class given is biochemical. Conditions: purified kinase, 33P-ATP (10 μM), P81 filter-binding method. The procedure:
(§1) ROCK2 and ROCK] kinase assays
(§2) ROCK2 and ROCK1 enzyme potencies were determined by Reaction Biology (www.reactionbiology.com) using their Hot Spot kinase Assay. The base reaction buffer for the assay was 20 mM Hepes (pH 7.5), 10 mM MgCl2, 1 mM EGTA, 0.01% Brij35, 0.02 mg/mL BSA, 0.1 mM Na3VO4, and 2 mM DTT with a 1% DMSO concentration. Required cofactors were added individually to each kinase reaction. The substrate was freshly prepared in the reaction buffer described above, and then cofactors were delivered. The purified kinase was added to the substrate solution and then gently mixed. Compounds were added from 100% DMSO into the kinase reaction mixture by Acoustic technology (Echo550; nanoliter range) and then incubated for 20 min at room temperature. ^33P-ATP (10 μM) was delivered to initiate the reaction, and then the mixture was incubated again for two hours at room temperature. […] Nat. Biotechnol. 2011 Oct. 30; 29(11):1039-45. doi: 10.1038/nbt.2017.
(§3) The compounds were categorized based on IC50 value as “+”, “++”, “+++”, and “++++”. The category “+” refers to compounds with ROCK IC50 value of >10 μM. The category “++” refers to compounds with a ROCK IC50 value of 10 to 3 μM. The category “+++” refers to compounds with ROCK IC50 value of 3 to 0.3 μM. The category “++++” refers to compounds with a ROCK IC50 value of <0.3 μM. “ND” refers to “not determined.” The compound of an “Example Number” is the final product of an Example entitled the Example Number.

For another test, the target named is T2, ROCK1 (Homo sapiens, UniProt Q13464).
T2 construct: purchased Reaction Biology
T2 sequence (Q13464 whole entry): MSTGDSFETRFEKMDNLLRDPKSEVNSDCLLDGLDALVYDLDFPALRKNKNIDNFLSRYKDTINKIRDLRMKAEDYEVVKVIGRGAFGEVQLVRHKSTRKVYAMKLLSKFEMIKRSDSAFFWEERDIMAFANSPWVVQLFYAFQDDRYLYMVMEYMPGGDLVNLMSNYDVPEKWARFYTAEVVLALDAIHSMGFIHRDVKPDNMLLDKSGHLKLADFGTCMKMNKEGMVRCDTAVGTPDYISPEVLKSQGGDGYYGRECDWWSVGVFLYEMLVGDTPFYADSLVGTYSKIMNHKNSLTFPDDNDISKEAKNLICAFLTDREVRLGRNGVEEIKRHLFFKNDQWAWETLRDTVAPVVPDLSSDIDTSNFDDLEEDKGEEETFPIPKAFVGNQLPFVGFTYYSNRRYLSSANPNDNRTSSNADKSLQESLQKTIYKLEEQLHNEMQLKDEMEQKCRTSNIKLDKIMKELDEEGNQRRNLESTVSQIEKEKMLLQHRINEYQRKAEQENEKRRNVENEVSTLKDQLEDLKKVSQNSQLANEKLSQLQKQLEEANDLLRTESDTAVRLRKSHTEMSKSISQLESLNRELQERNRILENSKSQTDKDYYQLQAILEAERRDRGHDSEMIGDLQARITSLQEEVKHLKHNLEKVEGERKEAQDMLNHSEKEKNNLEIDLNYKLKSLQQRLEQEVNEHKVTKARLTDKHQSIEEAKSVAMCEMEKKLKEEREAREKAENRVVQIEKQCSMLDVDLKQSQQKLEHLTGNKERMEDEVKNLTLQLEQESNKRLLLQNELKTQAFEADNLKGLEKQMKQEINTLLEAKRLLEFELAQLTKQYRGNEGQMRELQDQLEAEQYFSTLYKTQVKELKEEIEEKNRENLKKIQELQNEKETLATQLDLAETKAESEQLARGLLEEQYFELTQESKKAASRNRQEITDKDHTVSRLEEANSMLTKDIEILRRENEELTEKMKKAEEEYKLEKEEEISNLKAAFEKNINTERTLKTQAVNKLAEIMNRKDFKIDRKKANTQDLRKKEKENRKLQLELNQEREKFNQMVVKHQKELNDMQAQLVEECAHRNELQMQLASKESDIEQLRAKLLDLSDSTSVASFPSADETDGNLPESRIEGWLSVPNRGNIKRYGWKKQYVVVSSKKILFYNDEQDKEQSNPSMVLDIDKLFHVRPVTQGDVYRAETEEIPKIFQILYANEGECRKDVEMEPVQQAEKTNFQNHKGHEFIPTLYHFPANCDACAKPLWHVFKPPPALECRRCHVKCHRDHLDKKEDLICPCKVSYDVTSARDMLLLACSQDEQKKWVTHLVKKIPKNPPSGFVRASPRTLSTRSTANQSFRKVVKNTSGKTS
Nature of the test: ROCK1 kinase assay (Reaction Biology Hot Spot kinase assay). The class given is biochemical. The settings on record: purified kinase, 33P-ATP (10 μM), P81 filter-binding method. The procedure:
as §1, §2, §3

T1 sequence (O75116 whole entry): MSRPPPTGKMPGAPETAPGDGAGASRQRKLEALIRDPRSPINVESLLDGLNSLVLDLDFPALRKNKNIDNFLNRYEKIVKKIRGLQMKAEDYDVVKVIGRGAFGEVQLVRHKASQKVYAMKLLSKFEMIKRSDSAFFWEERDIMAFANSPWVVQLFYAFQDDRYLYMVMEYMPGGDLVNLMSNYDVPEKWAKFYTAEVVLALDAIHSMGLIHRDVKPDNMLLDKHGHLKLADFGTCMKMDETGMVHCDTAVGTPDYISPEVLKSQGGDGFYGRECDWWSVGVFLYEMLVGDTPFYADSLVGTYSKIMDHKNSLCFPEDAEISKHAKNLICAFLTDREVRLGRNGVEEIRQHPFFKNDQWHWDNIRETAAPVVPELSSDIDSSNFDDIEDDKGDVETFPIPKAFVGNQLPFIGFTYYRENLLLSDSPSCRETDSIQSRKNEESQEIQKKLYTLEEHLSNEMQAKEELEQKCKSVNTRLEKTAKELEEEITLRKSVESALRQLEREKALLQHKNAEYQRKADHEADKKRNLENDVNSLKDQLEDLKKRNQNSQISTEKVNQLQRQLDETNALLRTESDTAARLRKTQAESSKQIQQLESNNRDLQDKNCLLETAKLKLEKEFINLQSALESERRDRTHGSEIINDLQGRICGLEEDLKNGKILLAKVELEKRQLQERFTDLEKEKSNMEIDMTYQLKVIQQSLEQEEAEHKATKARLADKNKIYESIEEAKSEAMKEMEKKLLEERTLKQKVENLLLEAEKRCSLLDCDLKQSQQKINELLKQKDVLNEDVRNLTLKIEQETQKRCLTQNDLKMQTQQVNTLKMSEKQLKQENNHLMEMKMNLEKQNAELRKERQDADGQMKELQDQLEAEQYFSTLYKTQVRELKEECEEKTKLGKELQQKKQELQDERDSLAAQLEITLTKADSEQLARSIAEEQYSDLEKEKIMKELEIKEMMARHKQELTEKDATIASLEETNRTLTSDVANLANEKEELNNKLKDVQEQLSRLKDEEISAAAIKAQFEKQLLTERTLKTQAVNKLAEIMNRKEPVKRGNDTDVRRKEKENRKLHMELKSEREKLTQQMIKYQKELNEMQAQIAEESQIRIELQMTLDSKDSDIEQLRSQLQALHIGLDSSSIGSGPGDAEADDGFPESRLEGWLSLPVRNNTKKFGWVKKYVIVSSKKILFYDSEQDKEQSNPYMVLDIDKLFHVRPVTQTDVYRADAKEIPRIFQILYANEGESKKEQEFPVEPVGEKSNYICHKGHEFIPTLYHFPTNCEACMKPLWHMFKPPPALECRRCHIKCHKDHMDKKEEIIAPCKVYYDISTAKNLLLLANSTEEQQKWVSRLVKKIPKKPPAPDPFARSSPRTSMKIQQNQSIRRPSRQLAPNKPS

With `Cn1cc(C(=O)Nc2cccc(-n3ccc(Nc4ccc5[nH]ncc5c4)n3)c2)cn1` [Example 1, N-(3-(3-((1H-indazol-5-yl)amino)-1H-pyrazol-1-yl)phenyl)-1-methyl-1H-pyrazole-4-carboxamide], the values for the IC50 at ROCK2 and at ROCK1 were 300 to 3000 nM and 3 to 10 µM, respectively.

Take `Cc1cn(-c2cccc(NC(=O)c3cnn(C)c3)c2)nc1Nc1ccc2[nH]ncc2c1` [Example 3, N-(3-(3-((1H-indazol-5-yl)amino)-4-methyl-1H-pyrazol-1-yl)phenyl)-1-methyl-1H-pyrazole-4-carboxamide]: the 50% inhibitory concentration (IC50) on ROCK2 is below 300 nM; on ROCK1 it was below 0.3 µM.

Consider `Cc1cn(-c2cccc(NC(=O)c3cccnc3)c2)nc1Nc1ccc2[nH]ncc2c1` [Example 4, N-(3-(3-((1H-indazol-5-yl)amino)-4-methyl-1H-pyrazol-1-yl)phenyl)nicotinamide], for which the IC50 was below 300 nM on ROCK2 and below 0.3 µM at ROCK1.

`Cc1cc(Nc2ccc3[nH]ncc3c2)nn1-c1cccc(NC(=O)c2c[nH]cn2)c1` [Example 5, N-(3-(3-((1H-indazol-5-yl)amino)-5-methyl-1H-pyrazol-1-yl)phenyl)-1H-imidazole-4-carboxamide]: the IC50 was below 300 nM on ROCK2 and 0.3 to 3 µM at ROCK1.

`O=C(Nc1cccc(-n2ccc(Nc3ccc4[nH]ncc4c3)n2)c1)c1cccnc1` [Example 6]: the IC50 at ROCK2 was 300 to 3000 nM; on ROCK1, 0.3 to 3 µM.

In the case of `Cc1cc(Nc2ccc3[nH]ncc3c2)nn1-c1cccc(NC(=O)c2cccnc2)c1` [Example 9], the IC50 at ROCK2 is below 300 nM; at ROCK1 it was 0.3 to 3 µM.

Take `COc1cc(-n2ccc(Nc3ccc4[nH]ncc4c3)n2)ccc1OCC(=O)NC(C)C` [Example 11]: the 50% inhibitory concentration (IC50) on ROCK2 is 300 to 3000 nM; at ROCK1, above 10 µM.

Consider `COc1cc(-n2ccc(Nc3ccc4[nH]ncc4c3Cl)n2)ccc1OCC(=O)NC(C)C` [Example 12], for which the results for the IC50 at ROCK2 and on ROCK1 were below 300 nM and 0.3 to 3 µM, respectively.

Consider `COc1cc(-n2cc(C)c(Nc3ccc4[nH]ncc4c3Cl)n2)ccc1OCC(=O)NC(C)C` [Example 13], for which the concentration for half-maximal inhibition (IC50) is below 300 nM at ROCK2 and 0.3 to 3 µM on ROCK1.

On to `COc1cc(-n2nc(Nc3ccc4[nH]ncc4c3Cl)cc2C)ccc1OCC(=O)NC(C)C` [Example 14], for which the IC50 on ROCK2 was 300 to 3000 nM; on ROCK1, above 10 µM.

Regarding `CC(C)NC(=O)COc1ccc(-n2nc(Nc3ccc4[nH]ncc4c3)c3ccccc32)cc1` [Example 16], the IC50 is 300 to 3000 nM on ROCK2 and above 10 µM on ROCK1.

For the compound `COc1cc(-n2nc(Nc3ccc4[nH]ncc4c3)c3ccccc32)ccc1OCC(=O)NC(C)C` [Example 17], the IC50 was below 300 nM at ROCK2 and 0.3 to 3 µM on ROCK1.

For `COc1cc(-n2nc(Nc3ccc4[nH]ncc4c3Cl)c3ccccc32)ccc1OCC(=O)NC(C)C` [Example 18], the 50% inhibitory concentration (IC50) on ROCK2 lay within 300 to 3000 nM; at ROCK1, 3 to 10 µM.

Take `COc1nc(-n2nc(Nc3ccc4[nH]ncc4c3Cl)c3ccccc32)ccc1OCC(=O)NC(C)C` [Example 19]: the IC50 at ROCK2 was below 300 nM; at ROCK1, below 0.3 µM.

Consider `Cn1cc(C(=O)Nc2cccc(-n3nc(Nc4ccc5[nH]ncc5c4)c4ccccc43)c2)cn1` [Example 21], for which the 50% inhibitory concentration (IC50) lay within 300 to 3000 nM on ROCK2 and 3 to 10 µM at ROCK1.

`O=C(Nc1cccc(-n2nc(Nc3ccc4[nH]ncc4c3)c3ccccc32)c1)c1c[nH]cn1` [Example 22]: the results for the IC50 at ROCK2 and at ROCK1 were 300 to 3000 nM and 3 to 10 µM, respectively.

Regarding `COc1ncc(C(=O)Nc2cccc(-n3nc(Nc4ccc5[nH]ncc5c4)c4ccccc43)c2)cn1` [Example 25], the half-maximal inhibitory concentration (IC50) on ROCK2 fell in the range of 300 to 3000 nM; at ROCK1, 0.3 to 3 µM.

For `O=C(Cc1ccccn1)Nc1cccc(-n2nc(Nc3ccc4[nH]ncc4c3)c3ccccc32)c1` [Example 26], the values for the IC50 at ROCK2 and on ROCK1 were 300 to 3000 nM and 3 to 10 µM, respectively.

For the compound `O=C(Cc1ncc[nH]1)Nc1cccc(-n2nc(Nc3ccc4[nH]ncc4c3)c3ccccc32)c1` [Example 27], the 50% inhibitory concentration (IC50) lay in the range of 300 to 3000 nM on ROCK2 and 3 to 10 µM at ROCK1.

On to `Cn1cc(C(=O)Nc2cccc(-n3nc(Nc4ccc5[nH]ncc5c4Cl)c4ccccc43)c2)cn1` [Example 31], for which the IC50 is below 300 nM at ROCK2 and 0.3 to 3 µM at ROCK1.

Consider `O=C(Nc1cccc(-n2nc(Nc3ccc4[nH]ncc4c3Cl)c3ccccc32)c1)c1cccnc1` [Example 32], for which the 50% inhibitory concentration (IC50) at ROCK2 is below 300 nM; on ROCK1 it was above 10 µM.

Take `Cn1cc(C(=O)Nc2cccc(-c3cc(Nc4ccc5[nH]ncc5c4)no3)c2)cn1` [Example 33]: the values for the IC50 at ROCK2 and on ROCK1 were below 300 nM and below 0.3 µM, respectively.

Take `O=C(Nc1cccc(-c2cc(Nc3ccc4[nH]ncc4c3)no2)c1)c1c[nH]cn1` [Example 34, N-(3-(3-((1H-indazol-5-yl)amino)isoxazol-5-yl)phenyl)-1H-imidazole-4-carboxamide]: the IC50 at ROCK2 is below 300 nM; on ROCK1 it was below 0.3 µM.

Turning to `O=C(Nc1cccc(-c2cc(Nc3ccc4[nH]ncc4c3)no2)c1)c1cccnc1` [Example 35], the IC50 at ROCK2 was below 300 nM; on ROCK1, 0.3 to 3 µM.

As for `Cn1cc(C(=O)Nc2cccc(-c3nnc(Nc4ccc5[nH]ncc5c4)o3)c2)cn1` [Example 36], the results for the IC50 at ROCK2 and on ROCK1 were below 300 nM and below 0.3 µM, respectively.

Take `O=C(Nc1cccc(-c2nnc(Nc3ccc4[nH]ncc4c3)o2)c1)c1cn[nH]c1` [Example 37]: the values for the IC50 at ROCK2 and at ROCK1 were above 10000 nM and above 10 µM, respectively.

In the case of `O=C(Nc1cccc(-c2nnc(Nc3ccc4[nH]ncc4c3)o2)c1)c1cccnc1` [Example 38], the half-inhibitory concentration (IC50) is below 300 nM at ROCK2 and below 0.3 µM on ROCK1.

With `Cn1cc(C(=O)Nc2cccc(-c3nc(Nc4ccc5[nH]ncc5c4)no3)c2)cn1` [Example 39], the figures for the IC50 on ROCK2 and on ROCK1 were below 300 nM and below 0.3 µM, respectively.

With `O=C(Nc1cccc(-c2nc(Nc3ccc4[nH]ncc4c3)no2)c1)c1cn[nH]c1` [Example 40], the values for the concentration for half-maximal inhibition (IC50) on ROCK2 and at ROCK1 were below 300 nM and below 0.3 µM, respectively.

For the compound `O=C(Nc1cccc(-c2nc(Nc3ccc4[nH]ncc4c3)no2)c1)c1cccnc1` [Example 41], the IC50 at ROCK2 was below 300 nM; at ROCK1, 0.3 to 3 µM.

As to `Cn1cc(C(=O)Nc2cccc(-c3noc(Nc4ccc5[nH]ncc5c4)n3)c2)cn1` [Example 42], the IC50 on ROCK2 is below 300 nM; on ROCK1, below 0.3 µM.

`O=C(Nc1cccc(-c2noc(Nc3ccc4[nH]ncc4c3)n2)c1)c1cccnc1` [Example 44]: the IC50 was below 300 nM at ROCK2 and below 0.3 µM at ROCK1.

Take `Cn1cc(C(=O)Nc2cccc(-n3nc(Nc4ccc5[nH]ncc5c4)c4ccccc43)n2)cn1` [Example 45, N-(6-(3-((1H-indazol-5-yl)amino)-1H-indazol-1-yl)pyridin-2-yl)-1-methyl-1H-pyrazole-4-carboxamide]: the figures for the half-inhibitory concentration (IC50) on ROCK2 and on ROCK1 were below 300 nM and below 0.3 µM, respectively.

With `Cn1cc(C(=O)Nc2cccc(-n3nc(Nc4ccc5[nH]ncc5c4Cl)c4ccccc43)n2)cn1` [Example 46], the IC50 on ROCK2 is below 300 nM; on ROCK1 it was below 0.3 µM.

As for `Cn1cc(C(=O)Nc2ccnc(-n3nc(Nc4ccc5[nH]ncc5c4Cl)c4ccccc43)c2)cn1` [Example 47], the IC50 on ROCK2 is above 10000 nM; on ROCK1, above 10 µM.

For `Cc1coc(-c2cc(-c3nnc(Nc4ccc5[nH]ncc5c4Cl)o3)ccn2)n1` [Example 48, N-(4-chloro-1H-indazol-5-yl)-5-(2-(4-methyloxazol-2-yl)pyridin-4-yl)-1,3,4-oxadiazol-2-amine], the half-maximal inhibitory concentration (IC50) on ROCK2 was below 300 nM; at ROCK1, below 0.3 µM.

Consider `Clc1c(Nc2nnc(-c3ccnc(-c4ncco4)c3)o2)ccc2[nH]ncc12` [Example 49], for which the IC50 at ROCK2 is below 300 nM; at ROCK1, below 0.3 µM.

Regarding `Clc1c(Nc2nnc(-c3cccc(-c4ncco4)c3)o2)ccc2[nH]ncc12` [Example 50, N-(4-chloro-1H-indazol-5-yl)-5-(3-(oxazol-2-yl)phenyl)-1,3,4-oxadiazol-2-amine], the IC50 at ROCK2 is below 300 nM; at ROCK1, below 0.3 µM.

In the case of `Cn1cc(-c2nnc(Nc3ccc4[nH]ncc4c3Cl)o2)cc(NC(=O)c2ccccc2F)c1=O` [Example 52, N-(5-(5-((4-chloro-1H-indazol-5-yl)amino)-1,3,4-oxadiazol-2-yl)-1-methyl-2-oxo-1,2-dihydropyridin-3-yl)-2-fluorobenzamide], the IC50 at ROCK2 is below 300 nM; at ROCK1, below 0.3 µM.

Consider `Cn1cc(C(=O)Nc2cc(-n3nc(Nc4ccc5[nH]ncc5c4Cl)c4ccccc43)ccn2)cn1` [Example 53, N-(4-(3-((4-chloro-1H-indazol-5-yl)amino)-1H-indazol-1-yl)pyridin-2-yl)-1-methyl-1H-pyrazole-4-carboxamide], for which the IC50 was below 300 nM at ROCK2 and 3 to 10 µM on ROCK1.

As for `Cn1cc(C(=O)Nc2cncc(-n3nc(Nc4ccc5[nH]ncc5c4Cl)c4ccccc43)c2)cn1` [Example 54, N-(5-(3-((4-chloro-1H-indazol-5-yl)amino)-1H-indazol-1-yl)pyridin-3-yl)-1-methyl-1H-pyrazole-4-carboxamide], the concentration for half-maximal inhibition (IC50) on ROCK2 is above 10000 nM; on ROCK1, above 10 µM.

As a reminder, the IC50 is the concentration that inhibits the measured activity by half.
